Experimental data reported in PubChem BioAssay (NCI).
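1) Cells in 96-well plates. 2) Compound, 48 h, 5 concentrations. 3) Linear interpolation between surrounding doses. 4) Unreached endpoint = highest concentration. The concentration for 50% growth inhibition is given as GI50. TGI: total growth inhibition.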

What was measured:
Experiment in all cases: NCI tumour cell line growth inhibition, 48 h
SF-295 CNS = tested on: SF-295 CNS
NCI-H23 lung = tested on: NCI-H23 lung
IGROV1 ovarian = tested on: IGROV1 ovarian
MCF7 breast = tested on: MCF7 breast
HCT-116 colon = tested on: HCT-116 colon
OVCAR-3 ovarian = tested on: OVCAR-3 ovarian
OVCAR-5 ovarian = tested on: OVCAR-5 ovarian
MDA-MB-231 breast = tested on: MDA-MB-231 breast
SF-268 CNS = tested on: SF-268 CNS
SK-OV-3 ovarian = tested on: SK-OV-3 ovarian
TK-10 renal = tested on: TK-10 renal
UO-31 renal = tested on: UO-31 renal
SF-539 CNS = tested on: SF-539 CNS
HS 578T breast = tested on: HS 578T breast
A498 renal = tested on: A498 renal
ACHN renal = tested on: ACHN renal
KM12 colon = tested on: KM12 colon
UACC-257 melanoma = tested on: UACC-257 melanoma
SW-620 colon = tested on: SW-620 colon
SK-MEL-2 melanoma = tested on: SK-MEL-2 melanoma
T-47D breast = tested on: T-47D breast
K-562 leukemia = tested on: K-562 leukemia
CAKI-1 renal = tested on: CAKI-1 renal
SN12C renal = tested on: SN12C renal
HOP-92 NSCLC = tested on: HOP-92 NSCLC
SNB-19 CNS = tested on: SNB-19 CNS
SK-MEL-28 melanoma = tested on: SK-MEL-28 melanoma
LOX IMVI melanoma = tested on: LOX IMVI melanoma
HOP-62 NSCLC = tested on: HOP-62 NSCLC
A549 NSCLC = tested on: A549 NSCLC
UACC-62 melanoma = tested on: UACC-62 melanoma
NCI-H460 lung = tested on: NCI-H460 lung
DU-145 prostate = tested on: DU-145 prostate
SNB-75 CNS = tested on: SNB-75 CNS
RXF 393 renal = tested on: RXF 393 renal
PC-3 prostate = tested on: PC-3 prostate
RPMI-8226 leukemia = tested on: RPMI-8226 leukemia
HL-60(TB) leukemia = tested on: HL-60(TB) leukemia
786-0 renal = tested on: 786-0 renal
EKVX NSCLC = tested on: EKVX NSCLC
SK-MEL-5 melanoma = tested on: SK-MEL-5 melanoma
BT-549 breast = tested on: BT-549 breast
MDA-MB-435 = tested on: MDA-MB-435
SR leukemia = tested on: SR leukemia
COLO 205 colon = tested on: COLO 205 colon
M14 melanoma = tested on: M14 melanoma
HT29 colon = tested on: HT29 colon
HCT-15 colon = tested on: HCT-15 colon
NCI-H226 lung = tested on: NCI-H226 lung
CCRF-CEM leukemia = tested on: CCRF-CEM leukemia
OVCAR-8 ovarian = tested on: OVCAR-8 ovarian
MOLT-4 leukemia = tested on: MOLT-4 leukemia
HCC-2998 colon = tested on: HCC-2998 colon
NCI-H522 lung = tested on: NCI-H522 lung
MALME-3M melanoma = tested on: MALME-3M melanoma

`CCOC(=O)c1ccc2[nH]c(O)c(C(=Nc3ccc(N(C)C(=O)CN4CCN(C)CC4)cc3)c3ccccc3)c2c1` was tested, and the GI50 (SF-295 CNS) was 0.894 µM, the TGI (SF-295 CNS) was 2.2 µM and the GI50 (NCI-H23 lung) was 0.467 µM. The TGI (NCI-H23 lung) was 2.23 µM, the GI50 (IGROV1 ovarian) was 0.111 µM and the TGI (IGROV1 ovarian) was 1.24 µM. The GI50 (MCF7 breast) was 0.418 µM, the TGI (MCF7 breast) was 1.99 µM and the GI50 (HCT-116 colon) was 0.172 µM. It also gave a TGI (HCT-116 colon) of 1.26 µM, a GI50 (OVCAR-3 ovarian) of 0.774 µM and a TGI (OVCAR-3 ovarian) of 2.3 µM. The GI50 (OVCAR-5 ovarian) was 1.35 µM, the TGI (OVCAR-5 ovarian) was 3.44 µM and the GI50 (MDA-MB-231 breast) was 0.222 µM. For the same molecule, the TGI (MDA-MB-231 breast) was 1.54 µM, the GI50 (SF-268 CNS) was 0.413 µM and the TGI (SF-268 CNS) was 2.03 µM. It also gave a GI50 (SK-OV-3 ovarian) of 0.206 µM, a TGI (SK-OV-3 ovarian) of 1.23 µM and a GI50 (TK-10 renal) of 0.54 µM. For the same molecule, the TGI (TK-10 renal) was 3.33 µM, the GI50 (UO-31 renal) was 0.323 µM and the TGI (UO-31 renal) was 1.56 µM. It also gave a GI50 (SF-539 CNS) of 0.247 µM, a TGI (SF-539 CNS) of 0.979 µM and a GI50 (HS 578T breast) of 0.0644 µM. The TGI (HS 578T breast) was 1.01 µM, the GI50 (A498 renal) was 0.162 µM and the TGI (A498 renal) was 1.06 µM. For the same molecule, the GI50 (ACHN renal) was 0.356 µM, the TGI (ACHN renal) was 1.53 µM and the GI50 (KM12 colon) was 0.0172 µM. For the same molecule, the TGI (KM12 colon) was 1.51 µM, the GI50 (UACC-257 melanoma) was 1.38 µM and the TGI (UACC-257 melanoma) was 3.17 µM. For the same molecule, the GI50 (SW-620 colon) was 0.346 µM, the TGI (SW-620 colon) was 1.62 µM and the GI50 (SK-MEL-2 melanoma) was 0.78 µM. It also gave a TGI (SK-MEL-2 melanoma) of 2.57 µM, a GI50 (T-47D breast) of 0.979 µM and a TGI (T-47D breast) of 3.31 µM. For the same molecule, the GI50 (K-562 leukemia) was 0.0625 µM, the TGI (K-562 leukemia) was 2.04 µM and the GI50 (CAKI-1 renal) was 0.103 µM. The TGI (CAKI-1 renal) was 1.16 µM, the GI50 (SN12C renal) was 0.144 µM and the TGI (SN12C renal) was 1.54 µM. For the same molecule, the GI50 (HOP-92 NSCLC) was 0.781 µM, the TGI (HOP-92 NSCLC) was 2.78 µM and the GI50 (SNB-19 CNS) was 0.743 µM. It also gave a TGI (SNB-19 CNS) of 2.1 µM, a GI50 (SK-MEL-28 melanoma) of 1.11 µM and a TGI (SK-MEL-28 melanoma) of 2.48 µM. For the same molecule, the GI50 (LOX IMVI melanoma) was 0.3 µM, the TGI (LOX IMVI melanoma) was 1.41 µM and the GI50 (HOP-62 NSCLC) was 0.428 µM. For the same molecule, the TGI (HOP-62 NSCLC) was 2.18 µM, the GI50 (A549 NSCLC) was 0.416 µM and the TGI (A549 NSCLC) was 2.73 µM. For the same molecule, the GI50 (UACC-62 melanoma) was 1.41 µM, the TGI (UACC-62 melanoma) was 3.09 µM and the GI50 (NCI-H460 lung) was 0.81 µM. It also gave a TGI (NCI-H460 lung) of 2.45 µM, a GI50 (DU-145 prostate) of 0.49 µM and a TGI (DU-145 prostate) of 2.1 µM. For the same molecule, the GI50 (SNB-75 CNS) was 0.178 µM, the TGI (SNB-75 CNS) was 2.06 µM and the GI50 (RXF 393 renal) was 0.189 µM. For the same molecule, the TGI (RXF 393 renal) was 0.698 µM, the GI50 (PC-3 prostate) was 0.467 µM and the TGI (PC-3 prostate) was 2.37 µM. It also gave a GI50 (RPMI-8226 leukemia) of 0.598 µM, a TGI (RPMI-8226 leukemia) of 3.55 µM and a GI50 (HL-60(TB) leukemia) of 0.356 µM. It also gave a TGI (HL-60(TB) leukemia) of 1.15 µM, a GI50 (786-0 renal) of 0.213 µM and a TGI (786-0 renal) of 1.78 µM. The GI50 (EKVX NSCLC) was 0.955 µM, the TGI (EKVX NSCLC) was 2.74 µM and the GI50 (SK-MEL-5 melanoma) was 0.426 µM. For the same molecule, the TGI (SK-MEL-5 melanoma) was 1.58 µM, the GI50 (BT-549 breast) was 1.04 µM and the TGI (BT-549 breast) was 2.32 µM. The GI50 (MDA-MB-435) was 0.667 µM, the TGI (MDA-MB-435) was 2 µM and the GI50 (SR leukemia) was 0.121 µM. It also gave a TGI (SR leukemia) of 0.901 µM, a GI50 (COLO 205 colon) of 0.275 µM and a TGI (COLO 205 colon) of 1.47 µM. It also gave a GI50 (M14 melanoma) of 0.339 µM, a TGI (M14 melanoma) of 1.53 µM and a GI50 (HT29 colon) of 0.185 µM. It also gave a TGI (HT29 colon) of 8.87 µM, a GI50 (HCT-15 colon) of 0.402 µM and a TGI (HCT-15 colon) of 1.81 µM. For the same molecule, the GI50 (NCI-H226 lung) was 0.596 µM, the TGI (NCI-H226 lung) was 2.4 µM and the GI50 (CCRF-CEM leukemia) was 0.416 µM. It also gave a TGI (CCRF-CEM leukemia) of 8.65 µM, a GI50 (OVCAR-8 ovarian) of 0.514 µM and a TGI (OVCAR-8 ovarian) of 2.89 µM. It also gave a GI50 (MOLT-4 leukemia) of 0.254 µM, a TGI (MOLT-4 leukemia) of 2 µM and a GI50 (HCC-2998 colon) of 0.655 µM. It also gave a TGI (HCC-2998 colon) of 2.06 µM, a GI50 (NCI-H522 lung) of 1.12 µM and a TGI (NCI-H522 lung) of 3.34 µM. The GI50 (MALME-3M melanoma) was 0.454 µM and the TGI (MALME-3M melanoma) was 1.84 µM.
